Earlier results in patent publication US12318421B2 (priority 2020, dated 2025).

Molecular target: α-glucosidase
Conditions: values disclosed in references

SMILES: O=c1cc(-c2ccc(O)cc2)oc2cc(O)c([C@@H]3O[C@H](CO)[C@@H](O)[C@H](O)[C@H]3O)c(O)c12 [isovitexin]
- IC50 of α-glucosidase activity disclosed in references: 46.9 µg/mL
